Some test systems named below: K562; NCI/ADR-RES; CCRF-CEM; SNB-19; ACHN; NCI-H460; SK-OV-3; T47D; HCC 2998; DU-145; HCT-15; NCI-H23; PC-3; OVCAR-8; MCF7; UO-31; COLO 205; SW-620; SNB-75; HOP-62.
Assay in all cases: NCI anticancer screen, dose series, 48 h

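Growth conditions: 96-well plates. Treatment: test compound, 48 hours, 5 concentrations. Analysis: linear interpolation between bracketing concentrations; unreached endpoints set to highest concentration. Abbreviation: GI50, concentration required for 50% inhibition of growth.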 Active and inactive are the calls of the source. No stated cut-off is given here; in the data, active = GI50 up to about 1.1 µM and inactive = higher.

Consider `CCCCCCCCC/C=C1/CC(CO)(COC(=O)CC(C(C)C)C(C)C)OC1=O` (stereo not given), for which the GI50 with K562 was 0.36 µM (active); in the assay with NCI/ADR-RES it was 14.1 µM (inactive); in the assay on CCRF-CEM it was 5.35 µM (inactive); with SNB-19, 10.5 µM (inactive); with ACHN, 3.17 µM (inactive); in the assay on NCI-H460 it was 3.1 µM (inactive). The GI50 was 17.4 µM (inactive) with SK-OV-3; 4.91 µM (inactive) in the assay with T47D; 2.39 µM (inactive) with HCC 2998; 12.4 µM (inactive) in the assay with DU-145; 14.4 µM in the assay on HCT-15; 13.1 µM (inactive) with NCI-H23. Also, the GI50 was 6.75 µM (inactive) in the assay with PC-3; 16 µM (inactive) with OVCAR-8; 9.23 µM (inactive) in the assay on MCF7; 2.44 µM (inactive) in the assay with UO-31; 0.193 µM (active) in the assay with COLO 205; 1.16 µM (inactive) in the assay with SW-620. The figures for the GI50 in the assay with SNB-75 and in the assay on HOP-62 were 4.51 µM (inactive) and 1.12 µM (inactive), respectively.

Regarding `CC(=O)OCC1OC(On2ccccc2=S)C(OC(C)=O)C(OC(C)=O)C1OC(C)=O` (stereo not given), the GI50 is > 100 µM (inactive) in the assay with K562; > 100 µM (inactive) in the assay on NCI/ADR-RES; 0.785 µM (active) in the assay with CCRF-CEM; > 100 µM (inactive) in the assay with SNB-19; > 100 µM (inactive) with ACHN; > 100 µM (inactive) in the assay on NCI-H460. The GI50 in the assay with SK-OV-3 is > 100 µM (inactive); with T47D it was 87.1 µM (inactive); in the assay with HCC 2998, > 100 µM (inactive); in the assay on DU-145, > 100 µM (inactive); in the assay on HCT-15, > 100 µM; in the assay with NCI-H23, > 100 µM (inactive). The GI50 with PC-3 was 69.2 µM (inactive); in the assay with OVCAR-8 it was > 100 µM (inactive); in the assay with MCF7 it was > 100 µM (inactive); in the assay on UO-31, > 100 µM (inactive); in the assay with COLO 205, 81.5 µM (inactive); in the assay on SW-620 it was 36.6 µM (inactive). Also, the GI50 with SNB-75 and with HOP-62 was > 100 µM (inactive) in each case.

As to `COc1ncnc2c(NC3OC(CO)C(O)C3O)ncnc12` (stereo not given), the GI50 is 0.0306 µM (active) in the assay on K562; 0.417 µM (active) in the assay with NCI/ADR-RES; < 0.0209 µM (active) in the assay with CCRF-CEM; 1.16 µM (inactive) with SNB-19; 0.201 µM (active) with ACHN; 0.279 µM (active) in the assay on NCI-H460. Also, the GI50 with SK-OV-3 was 0.525 µM (active); in the assay with T47D, 0.708 µM (active); in the assay with HCC 2998, 1.26 µM (inactive); in the assay on DU-145, 0.407 µM (active); with HCT-15, 0.179 µM; in the assay on NCI-H23 it was 0.24 µM (active). The GI50 with PC-3 was 0.493 µM (active); with OVCAR-8, 0.329 µM (active); with MCF7, 0.041 µM (active); in the assay on UO-31, 0.984 µM (active); in the assay with COLO 205 it was 0.307 µM (active); in the assay with SW-620, 0.238 µM (active). Besides, the GI50 in the assay with SNB-75 was 0.735 µM (active); in the assay on HOP-62, 0.408 µM (active).

`Cc1ccc2c(c1)C(=O)C1(C2)Cc2cccc(C)c2C1=O` (stereo not given): the GI50 in the assay with K562 was > 100 µM (inactive); in the assay with NCI/ADR-RES it was > 100 µM (inactive); in the assay on CCRF-CEM it was > 100 µM (inactive); in the assay on SNB-19, 35.2 µM (inactive); in the assay with ACHN it was > 100 µM (inactive); in the assay with NCI-H460, > 100 µM (inactive). In addition, the GI50 in the assay with SK-OV-3 was > 100 µM (inactive); with T47D, > 100 µM (inactive); in the assay on HCC 2998, > 100 µM (inactive); in the assay on DU-145, > 100 µM (inactive); with HCT-15, > 100 µM; in the assay with NCI-H23, > 100 µM (inactive). The GI50 was > 100 µM (inactive) with PC-3; > 100 µM (inactive) in the assay on OVCAR-8; > 100 µM (inactive) with MCF7; 4.41 µM (inactive) with UO-31; > 100 µM (inactive) in the assay on COLO 205; > 100 µM (inactive) with SW-620. Also, the GI50 with SNB-75 was > 100 µM (inactive); in the assay with HOP-62, 88.9 µM (inactive).

For `OC1(c2ccccc2)CSC2=Nc3ccccc3C3CCN1N23` (stereo not given), the GI50 was 38.6 µM (inactive) in the assay on K562; 18.5 µM (inactive) in the assay with NCI/ADR-RES; 26.2 µM (inactive) in the assay with CCRF-CEM; 15.5 µM (inactive) in the assay on SNB-19; 19 µM (inactive) in the assay on ACHN; 13.4 µM (inactive) in the assay with NCI-H460. The GI50 with SK-OV-3 is 32.7 µM (inactive); in the assay on T47D it was 16.6 µM (inactive); in the assay on HCC 2998, 26.9 µM (inactive); in the assay on DU-145, 15.6 µM (inactive); in the assay on HCT-15 it was 17.6 µM; in the assay with NCI-H23 it was 27.7 µM (inactive). For the same compound, the GI50 was 15.3 µM (inactive) with PC-3; 19.5 µM (inactive) in the assay on OVCAR-8; 15.6 µM (inactive) in the assay on MCF7; 15.4 µM (inactive) in the assay with UO-31; 17.7 µM (inactive) in the assay on COLO 205; 21.4 µM (inactive) in the assay on SW-620. Also, the GI50 is 3.75 µM (inactive) in the assay on SNB-75 and 14.5 µM (inactive) with HOP-62.

Regarding `CC(=O)O[C@H]1CC[C@@]2(C)C(=CC[C@H]3[C@@H]4C/C(=C\c5ccncc5)[C@H](OC(C)=O)[C@@]4(C)CC[C@@H]32)C1`, the GI50 was 3.15 µM (inactive) in the assay with K562; 4.34 µM (inactive) in the assay on NCI/ADR-RES; 3.35 µM (inactive) in the assay with CCRF-CEM; 8.61 µM (inactive) with SNB-19; 15.1 µM (inactive) in the assay with ACHN; 10.1 µM (inactive) with NCI-H460. Further, the GI50 is 21.6 µM (inactive) in the assay with SK-OV-3; 14.2 µM (inactive) in the assay on T47D; 13.1 µM (inactive) with HCC 2998; 15.4 µM (inactive) in the assay with DU-145; 3.45 µM in the assay on HCT-15; 4.56 µM (inactive) in the assay with NCI-H23. For the same compound, the GI50 with PC-3 was 18.2 µM (inactive); in the assay with OVCAR-8 it was 11.8 µM (inactive); with MCF7, 14.7 µM (inactive); with UO-31, 8.04 µM (inactive); in the assay with COLO 205, 4.08 µM (inactive); with SW-620, 4.14 µM (inactive). Besides, the GI50 in the assay on SNB-75 was 7.62 µM (inactive); in the assay on HOP-62, 4.54 µM (inactive).

As to `Nc1cc2c(c3ccccc13)C(CCl)CN2C(=O)c1cc2cc(NC(=O)Nc3ccc4[nH]c(C(=O)N5CC(CCl)c6c5cc(N)c5ccccc65)cc4c3)ccc2[nH]1` (stereo not given), the GI50 was 0.367 µM (active) in the assay with K562; 1.31 µM (inactive) in the assay with NCI/ADR-RES; < 0.01 µM (active) in the assay with CCRF-CEM; 0.0785 µM (active) in the assay on SNB-19; < 0.01 µM (active) in the assay on ACHN; < 0.01 µM (active) in the assay on NCI-H460. Further, the GI50 was 0.506 µM (active) in the assay with SK-OV-3; < 0.0377 µM (active) in the assay on T47D; 0.259 µM (active) with HCC 2998; < 0.01 µM (active) with DU-145; 1.96 µM with HCT-15; 0.0239 µM (active) in the assay on NCI-H23. Also, the GI50 with PC-3 was 0.171 µM (active); in the assay with OVCAR-8 it was 0.0678 µM (active); in the assay with MCF7 it was 0.0284 µM (active); with UO-31, 0.0559 µM (active); in the assay with COLO 205, 0.687 µM (active); in the assay on SW-620, 0.075 µM (active). In addition, the values for the GI50 with SNB-75 and with HOP-62 were 0.0297 µM (active) and 0.0568 µM (active), respectively.

Take `COc1cc(C[C@@H](C)N)cc(OC)c1`: the GI50 in the assay with K562, in the assay on NCI/ADR-RES, in the assay on CCRF-CEM, in the assay with SNB-19, in the assay with ACHN and with NCI-H460 was > 100 µM (inactive) each time. For the same compound, the GI50 with SK-OV-3 was > 100 µM (inactive); in the assay with T47D it was > 100 µM (inactive); with HCC 2998, > 100 µM (inactive); in the assay with DU-145, > 100 µM (inactive); with HCT-15 it was > 100 µM; with NCI-H23, > 100 µM (inactive). Moreover, the GI50 in the assay with PC-3, in the assay with OVCAR-8, in the assay with MCF7, in the assay on UO-31, in the assay on COLO 205 and with SW-620 was > 100 µM (inactive) throughout. The results for the GI50 in the assay on SNB-75 and in the assay with HOP-62 were 21.8 µM (inactive) and > 100 µM (inactive), respectively.

`CCOC(=O)C1=CN(C(=O)c2ccccc2)CCC1Cc1ccccc1` (stereo not given): the GI50 in the assay on K562 is 17.6 µM (inactive); with NCI/ADR-RES it was 20 µM (inactive); in the assay with CCRF-CEM, 18 µM (inactive); in the assay with SNB-19, 34.4 µM (inactive); in the assay with ACHN it was 20.6 µM (inactive); in the assay with NCI-H460, 17.5 µM (inactive). The GI50 in the assay with SK-OV-3 was 31 µM (inactive); with T47D it was 12.5 µM (inactive); in the assay on HCC 2998, 17.6 µM (inactive); in the assay on DU-145, 40.9 µM (inactive); with HCT-15, 21.3 µM; in the assay on NCI-H23, 29 µM (inactive). Further, the GI50 with PC-3 was 17.7 µM (inactive); in the assay on OVCAR-8, 24.4 µM (inactive); in the assay with MCF7, 23.1 µM (inactive); in the assay with UO-31, 33 µM (inactive); with COLO 205 it was 18.9 µM (inactive); with SW-620 it was 26 µM (inactive). Besides, the GI50 with SNB-75 was 18.2 µM (inactive); in the assay with HOP-62, 30 µM (inactive).

For the compound `COc1cc2nc(-c3cccs3)nc(Nc3ccccc3C(=O)NN)c2cc1OC`, the GI50 in the assay with K562 was 97.5 µM (inactive); in the assay on NCI/ADR-RES, > 100 µM (inactive); in the assay on CCRF-CEM it was > 100 µM (inactive); with SNB-19, > 100 µM (inactive); in the assay with ACHN, > 100 µM (inactive); in the assay on NCI-H460 it was > 100 µM (inactive). Also, the GI50 was > 100 µM (inactive) in the assay with SK-OV-3; > 100 µM (inactive) in the assay on T47D; > 100 µM (inactive) in the assay with HCC 2998; > 100 µM (inactive) with DU-145; > 100 µM with HCT-15; > 100 µM (inactive) in the assay with NCI-H23. The GI50 with PC-3 is > 100 µM (inactive); in the assay on OVCAR-8, > 100 µM (inactive); with MCF7 it was > 100 µM (inactive); in the assay with UO-31 it was > 100 µM (inactive); with COLO 205, 67.3 µM (inactive); in the assay with SW-620, > 100 µM (inactive). In addition, the GI50 in the assay on SNB-75 and with HOP-62 was > 100 µM (inactive) each time.

(Values after ChEMBL document CHEMBL1201862, “PubChem BioAssay data set” (2004).)
